According to patent publication US7345065B2, “Methods and compositions for alleviating pain” (Allergan, Inc., priority 2002, dated 2008):
“Also recorded” adds a separate entry of the source.

Experiments:
[1] = tested on: sulprostone-sensitized wild type mice; assay: Sulprostone sensitized pain (allodynia), wild type mice; type: in vivo, mouse
Description: Non-specific α-adrenergic agonists were assayed in α-2A receptor deficient (“knockout”) mice (Hein et al., supra, 1999) using a mouse model of sulprostone sensitized pain in which allodynia is evoked by intrathecal administration of a selective prostaglandin E2 receptor agonist to conscious mice essentially as described in Minami et al., Pain 57:217-223 (1994). In this model, the pain response to stroking the flank with a paint brush is scored eight times over a 35 minute period starting 15 minutes following spinal administration of sulprostone and intrathecal or intraperitoneal administration of drug or control vehicle. Sulprostone elicits a “pain” score of 12-13 on a 16-point scale.
(§1) Assays for allodynia in wild type and α-2A knockout mice were performed essentially according to the method of Yaksh and Harty, J. Pharmacology Exp. Ther. 244: 501-507 (1998). In brief, mice were divided into groups of 5-6 animals. Control mice were administered 5 ul DMSO while treated animals were injected with 5 ul DMSO containing various doses of the indicated agent. After intrathecal injection, each mouse was placed in an individual 13×8.5×13 cm Plexiglass enclosure with wood chips on the floor for observation. Allodynia was assessed once every five minutes over a 50 minute time period, with response recorded eight times in the 15 to 50 minute time frame. Allodynia was assessed by light stroking of the flank of the mice with a small paintbrush and ranked as follows: 0, no response; 1, mild squeaking with attempts to move away from the stroking probe; and 2, vigorous squeaking evoked by the stroking probe, biting at the probe and strong efforts to escape. The eight scores for each animal were added together, and the mean for the group determined to give an average total score.

[2] = tested on: sulprostone-sensitized α-2A knockout mice; assay: Sulprostone sensitized pain (allodynia), α-2A knockout mice; type: in vivo, mouse
Description: as §1, with “In” for “Assays for allodynia in wild type and α-2A knockout mice were performed essentially according to the method of Yaksh and Harty, J. Pharmacology Exp. Ther. 244: 501-507 (1998). In”

[3] = tested on: Chung model rats; assay: Chung rat nerve ligation model, tactile allodynia reversal (Von Frey); type: in vivo; conditions: for long-term pain alleviation after extended dosing: gabapentin 3 mg/kg oral TID three days, amitriptyline 0.1, brimonidine 0.04, Compound 1 0.1 mg/kg/hour minipump seven days; for analgesia when co-administered with Compound 13 at 0.2 mg/kg/day: osmotic minipump; for analgesia, agonist given alone: peripheral (intraperitoneal) administration, clonidine 100 μg/kg, Compound 3 1 to 1000 μg/kg; for analgesia, agonist given alone / analgesia when co-administered with 0.3 μg/kg Compound 13: Compound 2 100 μg/kg; for analgesia when co-administered with 0.3 μg/kg Compound 13: intraperitoneal, clonidine 30 μg/kg; for Peak allodynia reversal (dose): intraperitoneal injection, dose (3-300 μg/kg); for allodynia reversal, enantiomers versus parent racemate: intraperitoneal administration, Chung model rats
Description: The Chung rat nerve ligation model is a well accepted model of peripheral neuropathic pain. In the Chung model, partial ligation of left spinal nerves L-5 and L-6 produces a long-lasting hypersensitivity to light touch on the affected left foot. The hypersensitivity is similar to pain experienced by humans with the neuropathic condition of causalgia (Kim and Chung, Pain 50:355-363 (1992)).
Chung rat surgeries of about 20 minutes duration were performed essentially as follows. Male Sprague-Dawley rats weighing 100 to 120 grams were anesthetized with isofluorane. After shaving and preparing the surgical site with betadine, an incision was made from thoracic vertebra XIII down toward the sacrum, and muscle separated from spinal vertebra (left side) at the L4-S2 levels. The L6 vertebra were located, and the transverse process carefully removed with a small rongeur to visually identify the L4-L6 spinal nerves. L5 and L6 spinal nerves were isolated and tightly ligated with 6-0 silk thread; the wound was sutured after complete hemostasis was confirmed. A small amount of antibiotic ointment was applied to the incised area before transferring the animals to a plastic recovery cage under a regulated heat-temperature lamp. Animals were not treated with any topical or local anesthetics post-operatively.
Assessment of pain in Chung model rats was performed by applying a light tactile stimulus (Von Frey hair) to the affected surgical paw as follows. A 50% pain threshold was established by applying the Von Frey hair in an up-and-down manner to the plantar surface of the surgical paw with just enough force to bend them. A positive response was recorded if the paw was withdrawn sharply. The 50% paw withdrawal threshold was determined using the method of Dixon et al., Ann. Rev. Pharmacol. Toxicol. 20:441-462 (1980). The post-drug threshold was compared to the pre-drug threshold, and the precent reversal of tactile sensitivity calculated based on a normal threshold of 15.1 grams. The results were expressed as % allodynia reversal, reflecting the percentage reversal of pain threshold relative to a normal rat (100%).
Chung surgeries were performed, and pain assessed as described above. Drugs administered via osmotic minipump were delivered as follows. ALZET (Cupertino, Calif.) minipumps (Model #1007D) were implanted subcutaneously on the rats' back between the shoulder blades. Pumps were filled with test solution prior to surgery, which was performed with aseptic procedures and sterilized surgical instruments. After anesthetization with isoflorane and midline incision between the shoulder blades through the muscle, a subcutaneous pocket was exposed. The minipump was inserted into the exposed pocket, before stapling the wounds closed and allowing animals to recover under a warming light.
ALZET osmotic minipumps (model 1007D) hold a total volume of 100 μl and delivered drug at the set rat of 0.5 μl per hour the indicated time period. Drugs were administered at the indicated rate, typically 100 μg/hr/kg, dissolved in 50% DMSO, with the concentration of drug in the pump varied depending on animal weight. […]

[4] = tested on: Male Sprague-Dawley rats; assay: Sedative effects in rats (total activity, digicom analyzer chamber); type: in vivo, rat
Description: (§2) Sedative effects were analyzed by assessing exploratory behavior in a darkened chamber as follows. Mice were weighed, and test compound administered by intrathecal injection in a volume of 5 μl or by intraperitoneal injection in 1 ml/kg volume at the indicated dose. At predetermined time points corresponding with analgesia measurements 5 to 30 minutes following the injection, the animal's activity was determined automatically by placing the mouse in a digicom analyzer chamber (Omnitech Electronic; Columbus, Ohio). The digicom analyzer chamber contains photocell beams criss-crossing the box that are broken as the animal moves around; the chamber was modified for mice by raising the level of the floor. Computer analysis of total animal movement proceeded over a 5-minute time period. Any given animal was used at most twice for this protocol, as learned behavior can affect the data. All animals received at least two weeks rest between studies.
Male Sprague-Dawley rats that were not subject to surgery were used for assessment of sedative effects. Rats were weighed and compound administered by intravenous or intraperitoneal injection or given orally at the indicated dose. At a predetermined time point 5 to 30 minutes following injection, the animal's activity was determined automatically by placing the rat in a digicom analyzer chamber (Omnitech Electronic). Total activity was analyzed as described above.

[5] = tested on: α-2B heterozygous (−/+) and homozygous (−/−) knockout mice; assay: Sulprostone sensitized pain (allodynia), α-2B knockout mice; type: in vivo, mouse; conditions: intraperitoneal; heterozygous and homozygous α-2B knockout; clonidine 500 ug/kg, Compound 3 100 ug/kg
[6] = tested on: mice; assay: Sedative effects in mice (exploratory activity, digicom analyzer chamber); type: in vivo, mouse; conditions: intraperitoneal, wild type mice; clonidine 500 ug/kg, Compound 3 100 ug/kg
Description: as §2

[7] = intraperitoneal injection, wild type mice (Compound 1 30 μg/kg; Compound 2 100 μg/kg)
[8] = intrathecal injection (Compound 1: 1 μg), wild type mice
[9] = intraperitoneal, α-2A knockout mice (Compound 1 30 μg/kg; Compound 2 and PAC 100 μg/kg)
[10] = intrathecal injection (Compound 1: 1 μg), α-2A knockout mice
[11] = subcutaneous osmotic minipump 0.1 mg/kg/hour, seven days
[12] = rauwolscine 0.3 μg/kg i.p., Compound 8 by osmotic minipump

Cc1c(N=C2NCCN2)ccc2c1NCCO2 [Compound 1]
analgesia [1, 7]: failed to produce analgesia separable from sedation | analgesia [1, 8]: significant analgesia separable from sedation | analgesia [2, 9]: significant analgesia without sedation | analgesia [2, 10]: did not produce analgesia | long-term pain alleviation after extended dosing [3]: the allodynia returned completely prior to or following cessation of treatment | analgesia when co-administered with Compound 13 at 0.2 mg/kg/day ([3]; Chung rats): greater analgesia was observed during the dosing period, and this analgesic effect continued after completion of drug administration | analgesia, agonist given alone ([3]; Chung rats): neither compound was significantly analgesic at non-sedating doses

CC1=CCCC1Cc1c[nH]c(=S)[nH]1 (stereo not drawn) [Compound 2]
analgesia [1, 7]: not analgesic | analgesia [2, 9]: fully analgesic | analgesia when co-administered with 0.3 μg/kg Compound 13 ([3]; Chung rats): significant analgesia | analgesia, agonist given alone ([3]; Chung rats): not analgesic | sedative effects ([4]; 100 μg/kg Compound 2 co-administered with 0.3 μg/kg Compound 13): no significant sedative effects

Clc1cccc(CNC2=NCCS2)c1Cl [Compound 5]
Peak allodynia reversal (dose) [3]: 77% +/− 8.3%

Fc1c(Cl)cccc1CNC1=NCCO1 [Compound 6]
Peak allodynia reversal (dose) [3]: 92% +/− 5.2%

Cc1cccc(CNC(=S)NCCO)c1F [Compound 7]
Peak allodynia reversal (dose) [3]: 60% +/− 8.0%

CCC1=CC(Cc2c[nH]cn2)CCC1 (stereo not drawn) [Compound 9]
allodynia alleviated during the period of drug treatment [3, 11]: 60-80% | persistence of analgesic effects after treatment [3, 11]: continued for over a month after treatment was concluded

O=C1c2ccccc2CCC1Cc1c[nH]c(=S)[nH]1 (stereo not drawn) [Compound 10]
allodynia reversal, enantiomers versus parent racemate [3]: allodynia reversal was obtained; also recorded: as effective as parent racemic mixture in relieving pain

O=c1[nH]cc(C[C@H]2CCc3cc(F)ccc32)[nH]1 [Compound 12]
allodynia reversal, enantiomers versus parent racemate [3]: at least as effective as the parent compound in reducing allodynia at all doses tested

Fc1ccc(Br)c(CNC2=NCCO2)c1 [Compound 14]
Peak allodynia reversal (dose) [3]: 77% +/− 6.2%

Nc1cc(Cl)c(N=C2NCCN2)c(Cl)c1 [PAC, para-amino clonidine, reference compound]
analgesia [2, 9]: analgesic | analgesia, agonist given alone ([3]; Chung rats): neither compound was significantly analgesic at non-sedating doses

CN(C)CCC=C1c2ccccc2CCc2ccccc21 [amitriptyline, reference compound]
long-term pain alleviation after extended dosing [3]: the allodynia returned completely prior to or following cessation of treatment

Brc1c(NC2=NCCN2)ccc2nccnc12 [brimonidine]
analgesia [1, 7]: failed to produce analgesia separable from sedation | analgesia [1, 8]: significant analgesia separable from sedation | analgesia [2, 9]: significant analgesia without sedation | analgesia [2, 10]: did not produce analgesia | analgesic effect in α-2B knockout mice [5]: analgesic | long-term pain alleviation after extended dosing [3]: the allodynia returned completely prior to or following cessation of treatment | analgesia when co-administered with Compound 13 at 0.2 mg/kg/day ([3]; Chung rats): greater analgesia was observed during the dosing period, and this analgesic effect continued after completion of drug administration

Clc1cccc(Cl)c1N=C1NCCN1 [clonidine, reference compound]
analgesia [1, 7]: failed to produce analgesia separable from sedation | sulprostone-induced tactile allodynia ([1]; intraperitoneal, wild type mice, clonidine 500 ug/kg, Compound 3 100 ug/kg): alleviated sulprostone-induced tactile allodynia | analgesia [1, 8]: significant analgesia separable from sedation | analgesia [2, 9]: significant analgesia without sedation | analgesia [2, 10]: did not produce analgesia | analgesic effect in α-2B knockout mice [5]: alleviated the analgesia in both heterozygous and homozygous α-2B knockout strains | concomitant sedation [6]: produced concomitant sedation | analgesia when co-administered with 0.3 μg/kg Compound 13 ([3]; Chung rats): dramatic allodynia reversal | analgesia ([3]; intrathecal injection, Chung rats): significant analgesia separable from sedation | sedation (activity) ([4]; clonidine 30 μg/kg intraperitoneal): reduces activity | sedation ([4]; clonidine 100 μg/kg intraperitoneal): extremely sedating

NCC1(CC(=O)O)CCCCC1 [gabapentin, reference compound]
long-term pain alleviation after extended dosing [3]: the allodynia returned completely prior to or following cessation of treatment

COC(=O)[C@H]1[C@H]2C[C@H]3c4[nH]c5ccccc5c4CCN3C[C@H]2CC[C@@H]1O [rauwolscine, reference compound]
effect on the analgesic effect of PAC (100 μg/kg i.p.) ([2]; rauwolscine 0.3 μg/kg intraperitoneal, α-2A knockout mice): blocked | inhibition of the analgesic activity of Compound 8, fourth day of treatment [3, 12]: not on the fourth day | inhibition of the analgesic activity of Compound 8, third day of treatment [3, 12]: inhibited the analgesic activity of Compound 8 when injected on the third day
